Tests used:
R6/2 mice [1] = test: Survival of R6/2 HD mice on oral CoQ10 in chow; assay type: in vivo
Experimental: There is substantial evidence that bioenergetic defects may play a role in the pathogenesis of HD. A possible therapy for diseases in which there is defective energy metabolism is to administer the mitochondrial cofactor coenzyme Q10(CoQ10).
(§1) The present invention is based, in part, on the discovery that increased level of CoQ10 appears to slow the progressive functional decline in […]. We orally administered CoQ10 at 400 mg/kg, and 1, 5, 10, and 20 g/kg in R6/2 mice starting at weaning in chow formulations.

R6/2 mice [2] = test: Disease phenotype in R6/2 HD mice (weight loss, motor deficits, grip strength, brain atrophy, huntingtin inclusions); assay type: in vivo; details: oral CoQ10 in chow
Experimental: as §1

[3] = oral administration, 400 mg/kg, previously demonstrated

In the case of COC1=C(OC)C(=O)C(C/C=C(\C)CC/C=C(\C)CC/C=C(\C)CC/C=C(\C)CC/C=C(\C)CC/C=C(\C)CC/C=C(\C)CC/C=C(\C)CC/C=C(\C)CCC=C(C)C)=C(C)C1=O [CoQ10, Coenzyme Q10], the neuroprotection (R6/2 mice [1]; [3]) is reported as “neuroprotective”, the survival extension (R6/2 mice [1]; [3]) is reported as 14.5% and the survival extension (R6/2 mice [1]; oral in chow from weaning, 5 g/kg (greatest extension), vs untreated R6/2 mice) is reported as 21.3%. For the same molecule, the “survival in comparison to untreated R6/2 mice” value (R6/2 mice [1]; oral in chow from weaning, all doses (400 mg/kg, 1, 5, 10, 20 g/kg)) was “significantly extended survival at all doses”, the “development of brain atrophy” value (R6/2 mice [2]) was “significantly delayed” and the “development of grip strength deficit” value (R6/2 mice [2]) was “significantly delayed”. For the same molecule, the “development of huntingtin inclusions” value (R6/2 mice [2]) was “significantly delayed”, the “development of motor deficits” value (R6/2 mice [2]) was “significantly delayed” and the “development of weight loss” value (R6/2 mice [2]) was “significantly delayed”.
